Where a SMILES comes first, the peptide text is derived from it. [ ]: non-standard residue; d: D form.
What was measured:
[1] = system: artificial skin (EpiDermFT); assay: Skin penetration in artificial skin model, confocal fluorescence intensity; format: in vitro ADME, human; conditions: FITC-labeled (GHRP-6, des(1-3)IGF-I forms) or rhodamine-labeled (PDGF-BB forms), 0.2 mg/mL, 40 μL, 24 h, 32 °C, 5% CO2, at least three images
Protocol: To evaluate skin permeability using confocal microscopy, des(1-3)IGF-I and MTD-des(1-3)IGF-I were labeled with fluorescein isothiocyanate (FITC), and PDGF-BB and MTD-PDGF-BB were labeled with rhodamine. The labeling reaction was carried out with the molar ratio of protein: FITC (or rhodamine) as 1:10 at 4 °C for 2 h. Excess FITC and rhodamine were removed using a PD-10 desalting column (GE Healthcare, USA). After adjusting the concentrations of FITC-labeled GHRP-6, MTD-GHRP-6, des(1-3)IGF-I, MTD-des(1-3)IGF-I, PDGF-BB, and MTD-PDGF-BB to 0.2 mg/mL, respectively, each labeled solution was applied to the artificial skin (EpiDermFT™, MatTek, USA). […] The fluorescence intensity per equivalent area of the dermal layer was calculated for each confocal image. Quantification analysis using fluorescence intensity was calculated based on the fluorescence intensity of confocal microscopy images. Three confocal microscopy images were obtained per each artificial skin, and the fluorescence intensity values were extracted from five areas of the same size per dermis layer in the microscopy images. The relative intensity was calculated by comparing the signals between the samples with and without MTD conjugation.

[2] = system: fibroblast cell line NIH 3T3; assay: Cell proliferation activity, NIH 3T3 cells (MTT); format: cell-based, mouse; conditions: 48 h, absorbance 570 nm, triplicates of at least two independent experiments
Protocol: The cell proliferation activity of PDGF-BB and MTD-PDGF-BB was measured using NIH 3T3 cells, which were cultured in DMEM medium supplemented with 10% Bovine Calf Serum (BCS; Hyclone, USA) in a 96-well plate at 5 × 10^3 cells/well for 24 h. 100 μL of the protein sample, serially diluted with serum-free DMEM medium, was added to each well and cultured at 37 °C for 48 h. After removing the cell culture medium, 100 μL of a mixed solution of 5 mg/mL MTT and serum-free DMEM at a ratio of 1:10 was added to each well. After 4 h of incubation in a CO2 incubator for 4 h, the reaction solution was removed, and 100 μL of DMSO was added to each well. Formazans were sufficiently dissolved in DMSO using a plate shaker to develop a purple color, which was measured at 570 nm using a microplate reader (Spectra Max, Molecular Devices, USA).

Row | Molecule | Fluorescence intensity in the dermal layer (permeability) relative to the original cargo [1] | ED50, cell proliferation [2] [µg/mL]
1 | CSCC[C@H](NC(=O)[C@H](CCCNC(=N)N)NC(=O)[C@H](C)NC(=O)[C@H](C)NC(=O)[C@H](C)NC(=O)[C@@H]1CCCN1C(=O)[C@H](C)NC(=O)[C@@H](NC(=O)[C@H](C)NC(=O)[C@H](C)NC(=O)CNC(=O)CNC(=O)[C@H](CCCCN)NC(=O)[C@@H](Cc1ccccc1)NC(=O)[C@H](Cc1c[nH]c2ccccc12)NC(=O)[C@H](C)NC(=O)[C@@H](Cc1c[nH]c2ccccc12)NC(=O)[C@@H](N)Cc1c[nH]cn1)C(C)C)C(=O)O [MTD-GHRP-6] (H-H[dW]AW[dF]KGGAAVAPAAARM-OH) | approximately five | 
2 | PDGF-BB: recombinant human platelet-derived growth factor BB, dimeric protein |  | 0.042
